According to publication PMC9916658, “Design and Synthesis of New Quinazolin-4-one Derivatives with Negative mGlu7 Receptor Modulation Activity and Antipsychotic-Like Properties” (International Journal of Molecular Sciences, 2023):
Entries after “also recorded” stand apart in the source; their conditions may differ.

Assays:
[1] = target: T1, recombinant human mGlu7 receptor (Homo sapiens, UniProt Q14831); experiment: NAM mGlu7 activity, forskolin-induced cAMP (HTRF) in T-REx 293 cell line; assay type: cell-based; settings: forskolin-stimulated cAMP response, 5 µM LSP4-2022 (EC80), T-REx 293 human mGlu7; for Inhibition (%): 10 μM compound
T1 construct: expressed in transfected cells; host or cells: T-REx 293 (tetracycline-inducible)
Method: The cell lines with the tetracycline-inducible expression of human metabotropic receptors 4, 7, and 8 were described in detail by Chruścicka et al. (mGlu4 receptor NM_000841, mGlu7 receptor NM_000844.2, and mGlu8 receptor NM_000845). Cells were grown under standard cell culture conditions (37 °C, 5% CO2) in DMEM supplemented with 10% tetracycline-free FBS. The expression was induced through the addition of tetracycline to the culture medium at 0.75 μg/mL.
The determination of the intracellular cAMP through homogeneous time-resolved fluorescence (HTRF) was described in detail previously. Briefly, 48 h before the experiments, the expression of the receptor was induced through the addition of tetracycline to the culture medium; the next day, FBS and L-Glu were removed from the medium. Just before the cAMP measurement, the cells were detached and centrifuged. Then, the cell suspension in Hanks-HEPES (130 mM NaCl, 5.4 mM KCl, 1.8 mM CaCl2, 0.8 mM MgSO4, 0.9 mM NaH2PO4, 20 mM HEPES, and 3.25 mM glucose; pH 7.4) was incubated in the presence of 10 µM forskolin (mGlu7 receptor, 3 µM forskolin), the agonist LSP4-2022 or L-Glu (for mGlu4 and mGlu8), and a compound for 5 min. The intracellular concentration of cyclic AMP was measured by means of a cAMP Gi HTRF kit from Cisbio, according to the manufacturer’s instructions. After 1 h of incubation at room temperature, the fluorescence at 620 nm and 665 nm was read (Tecan Infinite M1000). The results were calculated as the 665 nm/620 nm ratio multiplied by 10^4. Each sample was prepared in triplicate. Data were analyzed using GraphPad Prism version 5.04 for Windows (GraphPad Software, San Diego, USA).
The activity of the compounds was examined in the T-REx 293-cell-line-expressing recombinant human mGlu7 receptor by detecting the level of cyclic AMP in the presence of 5 µM forskolin [7, 41]. […] The substances were incubated with 5 µM LSP4-2022 (EC80).
Firstly, all compounds were screened at 10 μM using three cell lines expressing the mGlu4/7/8 receptor to evaluate selectivity. For the mGlu4 and mGlu8 receptors, glutamic acid was used as an agonist and had good potency. […] VU0155041 and AZ12216052 were used as reference compounds for the mGlu4 and mGlu8 receptors, respectively. The parameter described as “% of inhibition” was introduced to compare the bioactivity of the new compounds to the reference NAM at a 10 μM concentration in the presence of 5 μM LSP4-2022 (0%) and 3 μM forskolin (100%). […] For compounds that passed the screening procedure, the dose–response curve in the presence of LSP4-2022 in 5 μM was evaluated compared to reference NAM ADX71743. Only compounds ALX-063, ALX-065, and ALX-171 (Figure S3, Supplementary Materials) met our conditions regarding bioactivity. All of them were further investigated to determine the EC50 and receptor selectivity. […]
2.1. NAM mGlu7 receptor activity on T-Rex 293 cell line
The activity of compounds was examined on T-REx 293 cell line expressing recombinant human mGlu7 receptor by detecting the level of cyclic AMP in the presence of 5 µM forskolin [14,15]. The cell line was […]
incubated with 5 µM of LSP4-2022 (EC80).

[2] = target: T1, recombinant human mGlu7 receptor; experiment: as above; assay type: cell-based
[3] = system: animal models of schizophrenia; settings: mGlu7 PAM; cited from earlier work

T1 sequence (Q14831 35-915): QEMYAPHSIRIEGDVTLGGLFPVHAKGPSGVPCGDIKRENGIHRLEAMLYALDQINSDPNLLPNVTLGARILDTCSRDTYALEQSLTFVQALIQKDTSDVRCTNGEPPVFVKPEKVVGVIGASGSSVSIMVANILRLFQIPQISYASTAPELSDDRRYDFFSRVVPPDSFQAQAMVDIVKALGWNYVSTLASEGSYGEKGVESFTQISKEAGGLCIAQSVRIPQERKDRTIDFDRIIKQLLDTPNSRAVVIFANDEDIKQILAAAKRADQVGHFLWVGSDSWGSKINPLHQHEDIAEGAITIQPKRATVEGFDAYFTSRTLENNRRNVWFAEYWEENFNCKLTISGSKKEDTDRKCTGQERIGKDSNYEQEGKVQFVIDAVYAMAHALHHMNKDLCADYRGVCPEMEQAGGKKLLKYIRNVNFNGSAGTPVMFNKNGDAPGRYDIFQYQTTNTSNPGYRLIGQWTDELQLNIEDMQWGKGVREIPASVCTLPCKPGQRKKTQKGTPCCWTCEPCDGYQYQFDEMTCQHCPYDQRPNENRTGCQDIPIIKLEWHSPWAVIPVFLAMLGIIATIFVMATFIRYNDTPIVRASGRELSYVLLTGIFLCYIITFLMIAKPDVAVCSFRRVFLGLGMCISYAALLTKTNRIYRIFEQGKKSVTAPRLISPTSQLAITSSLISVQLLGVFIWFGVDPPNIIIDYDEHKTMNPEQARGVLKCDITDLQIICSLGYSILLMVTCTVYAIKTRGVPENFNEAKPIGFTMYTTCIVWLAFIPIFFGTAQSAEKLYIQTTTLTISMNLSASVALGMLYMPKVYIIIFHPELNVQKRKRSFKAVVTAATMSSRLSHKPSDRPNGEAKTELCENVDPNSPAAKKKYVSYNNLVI

Structure (SMILES) | Inhibition (%) [1] | other results
COc1ccccc1-c1ccc2nc(-c3ccccc3Cl)n(C)c(=O)c2c1 [A9-4] | Inactive | –
COc1cccc(-c2ccc3nc(-c4ccccc4Cl)n(C)c(=O)c3c2)c1 [A9-5] | Inactive | –
COc1ccc(-c2ccc3nc(-c4ccccc4Cl)n(C)c(=O)c3c2)cc1 [A9-6] | not observed; also recorded: Inactive | –
COc1ccc(-c2ccc3nc(-c4ccccc4Cl)n(C)c(=O)c3c2)c(OC)c1 [A9-8] | Inactive | –
COc1ccc(-c2ccc3nc(-c4ccccc4Cl)n(C)c(=O)c3c2)cc1OC [A9-9] | Inactive | –
COc1ccc(OC)c(-c2ccc3nc(-c4ccccc4Cl)n(C)c(=O)c3c2)c1 [A9-10] | Inactive | –
COc1cc(OC)cc(-c2ccc3nc(-c4ccccc4Cl)n(C)c(=O)c3c2)c1 [A9-11] | Inactive | –
COc1cccc(OC)c1-c1ccc2nc(-c3ccccc3Cl)n(C)c(=O)c2c1 [A9-12] | Inactive | –
Cn1c(-c2ccccc2)nc2ccc(-c3ccccc3)cc2c1=O [ALX-063, 3-methyl-2,6-diphenylquinazolin-4(3H)-one] | – | IC50 ([2]; T-REx 293 cells expressing human mGlu7, 5 µM LSP4-2022 (EC80), 5 µM forskolin): 6.5 µM; inhibition at 10 µM ([1]; T-REx-293, 10 μM compound): 42.5 ± 36.5%
c1ccc(C(NCCNC(c2ccccc2)c2ccccc2)c2ccccc2)cc1 [AMN082] | – | activity in animal models [3]: propsychotic activity
N[C@@H](CCC(=O)O)C(=O)O [L-Glu] | – | agonist potency at mGlu7 receptor ([2]; agonist compared with LSP4-2022): ~ 1 mM
